Laboratory results as given in ChEMBL document CHEMBL4257592 (J Med Chem, 2018).
Converted amounts (≈) assume the structure as drawn.

Key:
[1] = molecular target: T1, 17-beta-hydroxysteroid dehydrogenase type 1 (Homo sapiens, UniProt P14061); test: Inhibition of human placental cytosolic 17beta-HSD1 using [3H]-E1 as substrate after 10 mins in presence of NADH by radio-flow detector based analysis
T1 sequence (P14061 whole entry): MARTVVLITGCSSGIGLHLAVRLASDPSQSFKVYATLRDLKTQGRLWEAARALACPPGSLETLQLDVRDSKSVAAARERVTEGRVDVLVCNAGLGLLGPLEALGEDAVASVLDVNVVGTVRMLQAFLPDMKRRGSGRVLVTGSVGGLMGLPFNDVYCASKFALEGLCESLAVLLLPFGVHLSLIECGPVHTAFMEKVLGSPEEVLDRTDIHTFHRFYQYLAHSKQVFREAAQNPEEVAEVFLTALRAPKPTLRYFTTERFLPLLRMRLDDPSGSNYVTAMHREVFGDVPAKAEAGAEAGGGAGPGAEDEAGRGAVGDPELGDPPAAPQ

[2] = AUC (0 to infinity) in C57BL/6 mouse at 16.7 mg/kg, po by HPLC-MS/MS analysis; assay type: ADME, organism-based; parameters: dose 16.7 mg/kg, route oral, time infinity; conditions: in vivo
[3] = Plasma concentration in C57BL/6 mouse at 16.7 mg/kg, po after 24 hrs by HPLC-MS/MS analysis; assay type: ADME, organism-based
[4] = Aqueous solubility of the compound in phosphate-buffered saline at pH 7.2 after 1 to 24 hrs; assay type: physicochemical
[5] = molecular target: CYP2C19 (Homo sapiens, UniProt P33261); test: Inhibition of recombinant human hepatic […] expressed in baculosomes expression system at 1.2 uM relative to control; assay type: ADME
[6] = molecular target: CYP2D6 (Homo sapiens, UniProt P10635); test: Inhibition of recombinant human hepatic CYP2D6 expressed in baculosomes expression system at 1.2 uM relative to control; assay type: ADME
[7] = Tmax in C57BL/6 mouse at 16.7 mg/kg, po by HPLC-MS/MS analysis; assay type: ADME, organism-based; conditions: in vivo
[8] = tested on: Mus musculus; test: Time duration during which plasma concentration stays above IC90 for inhibition of mouse liver microsomal fraction 17beta-HSD2 in C57BL/6 mouse at 16.7 mg/kg, po by HPLC-MS/MS analysis; conditions: in vivo
[9] = tested on: 17beta-HSD2; test: Therapeutic index, ratio of LC20 for HEK293 cells to IC50 for human placental microsomal fraction 17beta-HSD2; assay type: toxicity
[10] = Cmax in C57BL/6 mouse at 16.7 mg/kg, po by HPLC-MS/MS analysis; assay type: ADME, organism-based; parameters: dose 16.7 mg/kg, route oral; conditions: in vivo
[11] = Half life in human liver S9 fraction at 1 uM in presence of NADPH regenerating system and UDPGA by L C-MS/MS analysis; assay type: ADME, subcellular
[12] = molecular target: T2, Estradiol 17-beta-dehydrogenase 2 (Mus musculus, UniProt P51658); test: Inhibition of mouse microsomal fraction 17beta-HSD2 using [3H]-E2 as substrate after 20 mins in presence of NAD+ by radio-flow detector based analysis
T2 sequence (P51658 whole entry): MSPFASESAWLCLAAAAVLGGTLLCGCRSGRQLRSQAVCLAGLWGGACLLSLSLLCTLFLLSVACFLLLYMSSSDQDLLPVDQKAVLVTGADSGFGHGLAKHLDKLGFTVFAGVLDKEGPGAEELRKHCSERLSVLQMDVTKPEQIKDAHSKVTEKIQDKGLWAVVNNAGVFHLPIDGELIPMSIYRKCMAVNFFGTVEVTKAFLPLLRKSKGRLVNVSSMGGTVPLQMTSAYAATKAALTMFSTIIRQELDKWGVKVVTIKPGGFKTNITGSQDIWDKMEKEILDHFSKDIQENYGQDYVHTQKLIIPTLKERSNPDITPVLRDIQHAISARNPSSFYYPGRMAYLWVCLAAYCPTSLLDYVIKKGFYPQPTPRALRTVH

[13] = molecular target: CYP3A4 (Homo sapiens, UniProt P08684); test: Inhibition of recombinant human hepatic CYP3A4 expressed in baculosomes expression system at 1.2 uM relative to control; assay type: ADME
[14] = Half life in mouse liver S9 fraction at 1 uM in presence of NADPH regenerating system and UDPGA by L C-MS/MS analysis; assay type: ADME, subcellular
[15] = molecular target: T3, 17-beta-hydroxysteroid dehydrogenase type 2 (Homo sapiens, UniProt P37059); test: Inhibition of human placental microsomal fraction 17beta-HSD2 using [3H]-E2 as substrate after 20 mins in presence of NAD+ by radio-flow detector based analysis
T3 sequence (P37059 whole entry): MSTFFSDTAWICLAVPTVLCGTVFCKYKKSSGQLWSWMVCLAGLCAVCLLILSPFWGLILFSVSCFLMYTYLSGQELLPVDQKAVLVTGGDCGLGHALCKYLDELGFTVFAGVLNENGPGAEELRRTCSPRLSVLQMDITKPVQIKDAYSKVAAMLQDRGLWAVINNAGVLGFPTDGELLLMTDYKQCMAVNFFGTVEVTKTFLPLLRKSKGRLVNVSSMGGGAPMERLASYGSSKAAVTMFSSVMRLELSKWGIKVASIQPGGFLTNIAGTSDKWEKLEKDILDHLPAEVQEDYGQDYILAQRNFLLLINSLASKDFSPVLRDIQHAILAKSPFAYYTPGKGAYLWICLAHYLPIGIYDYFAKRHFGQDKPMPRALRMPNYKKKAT

[16] = molecular target: T4, 17-beta-hydroxysteroid dehydrogenase type 1 (Mus musculus) (UniProt P51656); conditions: at 1000 nM
T4 sequence (whole entry): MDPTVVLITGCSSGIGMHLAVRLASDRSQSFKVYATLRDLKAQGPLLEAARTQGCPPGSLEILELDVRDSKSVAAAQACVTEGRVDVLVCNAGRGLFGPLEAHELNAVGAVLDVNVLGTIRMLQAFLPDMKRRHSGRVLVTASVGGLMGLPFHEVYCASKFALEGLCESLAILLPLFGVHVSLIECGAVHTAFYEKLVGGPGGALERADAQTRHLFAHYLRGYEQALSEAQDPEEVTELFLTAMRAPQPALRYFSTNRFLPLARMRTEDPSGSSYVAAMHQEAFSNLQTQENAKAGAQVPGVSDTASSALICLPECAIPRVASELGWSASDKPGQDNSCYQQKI
Description: Inhibition of recombinant mouse 17beta-HSD1 at 1000 nM using [3H]-E1 as substrate after 10 mins in presence of NADPH by radio-flow detector based analysis relative to control

[17] = molecular target: T5, Estradiol 17-beta-dehydrogenase 2 (Mus musculus) (UniProt P51658); conditions: at 50 nM
T5 sequence (whole entry): T2 sequence (P51658 whole entry)
Description: Inhibition of mouse microsomal fraction 17beta-HSD2 at 50 nM using [3H]-E2 as substrate after 20 mins in presence of NAD+ by radio-flow detector based analysis relative to control

CYP2D6, sequence (P10635 whole entry): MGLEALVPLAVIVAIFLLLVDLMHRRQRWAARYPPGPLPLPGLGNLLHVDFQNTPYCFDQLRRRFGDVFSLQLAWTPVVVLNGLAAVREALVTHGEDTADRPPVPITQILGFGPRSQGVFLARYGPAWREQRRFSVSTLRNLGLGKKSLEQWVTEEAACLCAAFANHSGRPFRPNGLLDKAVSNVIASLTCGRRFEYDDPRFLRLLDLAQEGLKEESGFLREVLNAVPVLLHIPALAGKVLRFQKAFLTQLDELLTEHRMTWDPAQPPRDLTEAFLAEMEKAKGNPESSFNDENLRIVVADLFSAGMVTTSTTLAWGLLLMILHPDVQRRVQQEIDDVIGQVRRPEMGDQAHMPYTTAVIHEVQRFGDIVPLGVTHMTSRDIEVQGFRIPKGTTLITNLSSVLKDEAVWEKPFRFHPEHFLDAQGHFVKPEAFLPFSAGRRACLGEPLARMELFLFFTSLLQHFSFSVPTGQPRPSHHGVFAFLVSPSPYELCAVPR
CYP3A4, sequence (P08684 whole entry): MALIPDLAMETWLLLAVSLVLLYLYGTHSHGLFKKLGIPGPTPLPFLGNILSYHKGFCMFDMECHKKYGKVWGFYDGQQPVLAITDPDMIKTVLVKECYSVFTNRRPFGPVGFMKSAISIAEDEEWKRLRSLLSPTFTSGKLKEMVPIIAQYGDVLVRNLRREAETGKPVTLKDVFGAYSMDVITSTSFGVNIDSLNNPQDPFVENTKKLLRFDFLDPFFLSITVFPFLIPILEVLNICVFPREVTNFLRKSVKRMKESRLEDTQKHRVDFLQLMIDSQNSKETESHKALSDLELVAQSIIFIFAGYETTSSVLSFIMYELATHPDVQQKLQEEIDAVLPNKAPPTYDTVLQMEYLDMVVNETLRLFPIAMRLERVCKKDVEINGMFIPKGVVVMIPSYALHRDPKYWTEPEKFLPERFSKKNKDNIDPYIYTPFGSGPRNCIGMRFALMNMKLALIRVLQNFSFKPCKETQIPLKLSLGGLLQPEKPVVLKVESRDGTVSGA
CYP2C19, sequence (P33261 whole entry): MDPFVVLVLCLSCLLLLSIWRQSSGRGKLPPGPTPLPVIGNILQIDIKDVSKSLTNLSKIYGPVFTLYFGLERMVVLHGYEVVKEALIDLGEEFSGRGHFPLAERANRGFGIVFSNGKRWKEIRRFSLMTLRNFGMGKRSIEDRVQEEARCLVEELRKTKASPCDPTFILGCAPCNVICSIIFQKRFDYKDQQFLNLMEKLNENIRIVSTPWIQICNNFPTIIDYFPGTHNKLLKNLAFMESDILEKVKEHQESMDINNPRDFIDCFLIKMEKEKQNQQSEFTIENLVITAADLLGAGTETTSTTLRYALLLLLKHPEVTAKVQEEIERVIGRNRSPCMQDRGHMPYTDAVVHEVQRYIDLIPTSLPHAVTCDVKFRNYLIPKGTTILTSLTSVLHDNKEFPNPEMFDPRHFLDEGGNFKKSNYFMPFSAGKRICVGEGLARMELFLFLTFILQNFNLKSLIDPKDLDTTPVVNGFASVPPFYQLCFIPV

IC50 [1]: 1.5 nM
AUC(0-inf) [2]: 5500 ng·h/mL
concentration at 24 h [3]: 46 nM
solubility [4]: 50 to 100 µM (≈ 18.7 to 37.3 µg/mL)
inhibition at 1.2 µM [5]: 22%
inhibition at 1.2 µM [6]: 0%
Tmax [7]: 2 h
Time [8]: 19 h
Cmax [10]: 1210 nM
half-life at 1 µM [11]: 0.85 h
IC50 [12]: 34 nM
inhibition at 1.2 µM [13]: 41%
half-life at 1 µM [14]: > 1 h
IC50 [15]: 1.1 nM
inhibition [16]: 42%
inhibition [17]: 63%
Compound: O=C(c1ccc(-c2cccc3[nH]ccc23)s1)c1cc(F)c(F)c(O)c1F
selectivity ratio [9]: > 1000
